The experiment addresses T1, purified human HDAC6 (Homo sapiens, UniProt Q9UBN7).
T1 construct: purchased BPS Bioscience 5006
T1 sequence (Q9UBN7 1-1215): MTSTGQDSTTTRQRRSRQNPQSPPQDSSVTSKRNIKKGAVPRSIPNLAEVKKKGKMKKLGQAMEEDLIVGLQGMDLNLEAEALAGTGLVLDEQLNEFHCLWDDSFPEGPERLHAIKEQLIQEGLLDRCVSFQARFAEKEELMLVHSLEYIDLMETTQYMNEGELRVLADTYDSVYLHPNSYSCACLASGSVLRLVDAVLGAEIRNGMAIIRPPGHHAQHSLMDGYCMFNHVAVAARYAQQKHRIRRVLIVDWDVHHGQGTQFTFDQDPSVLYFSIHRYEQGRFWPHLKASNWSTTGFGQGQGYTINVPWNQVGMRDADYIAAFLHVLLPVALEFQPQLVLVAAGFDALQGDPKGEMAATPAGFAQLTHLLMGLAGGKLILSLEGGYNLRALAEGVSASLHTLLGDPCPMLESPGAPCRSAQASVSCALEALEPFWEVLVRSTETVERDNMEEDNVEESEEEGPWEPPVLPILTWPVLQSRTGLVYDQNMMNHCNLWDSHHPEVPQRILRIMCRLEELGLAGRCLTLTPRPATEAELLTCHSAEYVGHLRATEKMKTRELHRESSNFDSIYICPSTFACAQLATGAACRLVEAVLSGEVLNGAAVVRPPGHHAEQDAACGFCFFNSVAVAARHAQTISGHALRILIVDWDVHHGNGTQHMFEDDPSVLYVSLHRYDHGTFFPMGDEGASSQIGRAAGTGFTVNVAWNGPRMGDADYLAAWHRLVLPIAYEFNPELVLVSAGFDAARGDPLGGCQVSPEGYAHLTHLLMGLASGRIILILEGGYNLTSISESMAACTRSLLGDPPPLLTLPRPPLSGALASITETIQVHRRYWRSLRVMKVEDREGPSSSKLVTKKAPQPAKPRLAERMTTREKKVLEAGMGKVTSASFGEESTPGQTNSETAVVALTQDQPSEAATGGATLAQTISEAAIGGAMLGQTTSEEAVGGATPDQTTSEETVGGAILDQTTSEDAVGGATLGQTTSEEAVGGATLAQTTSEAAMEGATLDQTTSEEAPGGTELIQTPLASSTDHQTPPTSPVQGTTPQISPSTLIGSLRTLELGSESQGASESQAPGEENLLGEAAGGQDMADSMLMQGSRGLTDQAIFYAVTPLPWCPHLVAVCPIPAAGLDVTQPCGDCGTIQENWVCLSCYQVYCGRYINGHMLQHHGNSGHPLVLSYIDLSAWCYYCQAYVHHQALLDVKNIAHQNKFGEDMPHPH
In words: HDAC6 Enzyme Assay. The following applies: enzyme inhibition, substrate Ac-Arg-Gly-Lys(Ac)-AMC, 1 hour at 30° C. Format: biochemical. The procedure, abridged: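 Purified human HDAC6 incubated 1 h at 30 °C with Ac-Arg-Gly-Lys(Ac)-AMC peptide and compound; reaction stopped with trichostatin A, then trypsin releases AMC, read by fluorescence (Ex 340/Em 460 nm). IC50 from concentration-response curves relative to DMSO controls.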

From patent US8624040B2, “Substituted hydroxamic acids and uses thereof” (Millennium Pharmaceuticals, Inc., priority 2009, dated 2014) come the findings set out here.

SMILES strings stand for the structures. pIC50: −log10 of the molar value.

A word on the pIC50: it is the IC50 on a negative log10 scale, so that one unit is a factor of ten. A low value points to a high IC50.

Molecule `Cc1nc(-c2ccccc2)ncc1C(=O)N1CCc2cc(C(=O)NO)sc2C1` [Compound 152, N-hydroxy-6-[(4-methyl-2-phenylpyrimidin-5-yl)carbonyl]-4,5,6,7-tetrahydrothieno[2,3-c]pyridine-2-carboxamide] showed a pIC50 of over 7.30. Molecule `Cc1c(C(=O)NO)sc2c1CN(C(=O)c1cccn1C)CC2` [Compound 194, N-hydroxy-3-methyl-5-[(1-methyl-1H-pyrrol-2-yl)carbonyl]-4,5,6,7-tetrahydrothieno[3,2-c]pyridine-2-carboxamide] showed a pIC50 of over 7.30. Next, `O=C(NO)c1cc2c(s1)CN(C(=O)CC1c3ccccc3-c3ccccc31)CC2` [Compound 17, 6-(9H-fluoren-9-ylacetyl)-N-hydroxy-4,5,6,7-tetrahydrothieno[2,3-c]pyridine-2-carboxamide]: under 6.00.

The molecule `Cc1nc(C(F)(F)F)c(C(=O)N2CCc3cc(C(=O)NO)sc3C2)s1` [Compound 11, N-hydroxy-6-{[2-methyl-4-(trifluoromethyl)-1,3-thiazol-5-yl]carbonyl}-4,5,6,7-tetrahydrothieno[2,3-c]pyridine-2-carboxamide] showed a pIC50 of over 7.30.

Consider `CC(C)(C)c1ccc(C(=O)N2Cc3cc(C(=O)NO)sc3C(C)(C)C2)cc1` [Compound 190, 5-(4-tert-butylbenzoyl)-N-hydroxy-7,7-dimethyl-4,5,6,7-tetrahydrothieno[3,2-c]pyridine-2-carboxamide], for which the pIC50 was under 6.00. `O=C(NO)c1cc2c(s1)CN(C(=O)Nc1ccc(I)cc1)CC2` [Compound 163, N^2-hydroxy-N^6-(4-iodophenyl)-4,7-dihydrothieno[2,3-c]pyridine-2,6(5H)-dicarboxamide] showed a pIC50 of over 7.30. Next, `COc1c(C(=O)N2CCc3cc(C(=O)NO)sc3C2)csc1Cl` [Compound 7, 6-[(5-chloro-4-methoxy-3-thienyl)carbonyl]-N-hydroxy-4,5,6,7-tetrahydrothieno[2,3-c]pyridine-2-carboxamide]: over 7.30. As for `O=C(NO)c1cc2c(s1)CN(C(=O)c1cccc(O)n1)CC2` [Compound 81, N-hydroxy-6-[(6-hydroxypyridin-2-yl)carbonyl]-4,5,6,7-tetrahydrothieno[2,3-c]pyridine-2-carboxamide], the figure is 7.00 to 7.30; as for `CC(C)c1ccc(NC(=O)N2CCc3cc(C(=O)NO)sc3C2)cc1` [Compound 139, N^2-hydroxy-N^6-(4-isopropylphenyl)-4,7-dihydrothieno[2,3-c]pyridine-2,6(5H)-dicarboxamide], over 7.30. As for `Cc1nn(-c2ccccc2)nc1CN1CCc2cc(C(=O)NO)sc2C1` [Compound 24, N-hydroxy-6-[(5-methyl-2-phenyl-2H-1,2,3-triazol-4-yl)methyl]-4,5,6,7-tetrahydrothieno[2,3-c]pyridine-2-carboxamide], the figure is over 7.30; as for `Cc1noc(C)c1CC(=O)N1CCc2cc(C(=O)NO)sc2C1` [Compound 62, 6-(2-(3,5-dimethylisoxazol-4-yl)acetyl)-N-hydroxy-4,5,6,7-tetrahydrothieno[2,3-c]pyridine-2-carboxamide], 7.00 to 7.30. `O=C(NO)c1cc2c(s1)CN(C(=O)c1ccsc1)CC2` [Compound 5, N-hydroxy-6-(3-thienylcarbonyl)-4,5,6,7-tetrahydrothieno[2,3-c]pyridine-2-carboxamide] had a pIC50 of over 7.30. As for `Cc1oc(S(=O)(=O)N2CCCCC2)cc1C(=O)N1CCc2cc(C(=O)NO)sc2C1` [Compound 16, N-hydroxy-6-[2-methyl-5-(piperidin-1-ylsulfonyl)-3-furoyl]-4,5,6,7-tetrahydrothieno[2,3-c]pyridine-2-carboxamide], the figure is over 7.30. As for `CC1(C)CN(C(=O)c2ccc(Cl)cc2)Cc2cc(C(=O)NO)sc21` [Compound 218, 5-(4-chlorobenzoyl)-N-hydroxy-7,7-dimethyl-4,5,6,7-tetrahydrothieno[3,2-c]pyridine-2-carboxamide], the figure is under 6.00.
